What was measured:
[1] = disclosed in Patent Document 2; cited from earlier work
[2] = repeated oral administration; disclosed in Patent Document 2; cited from earlier work
[3] = test system: VEGF induced retinal vascular permeability promotion; assay: VEGF induced rabbit retinal vascular permeability promotion model; format: in vivo; conditions: 0.5 mg/eye intravitreal in PEG 400; VEGF 2 months after administration; vitreous fluorescein 2 days after VEGF
Experimental: By using the VEGF induced rabbit retinal vascular permeability promotion model, usefulness of the polyethylene glycol 400 formulation of Compound A was evaluated. Incidentally, the VEGF has been reported to promote retinochoroidal vascular permeability by intravitreal administration (Invest Ophthalmol Vis Sci. 2013; 54(1):503-11.), and has generally been used for preparation of a pathological condition accompanied by retinal and choroidal vascular disorder (for example, diabetic retinopathy, diabetic macular edema, retinal vein occlusion, retinal artery occlusion, exudative age-related macular degeneration, etc.).
To 1.5 g of the present compound A was added 12 mL of polyethylene glycol 400 (NOF CORPORATION) and the mixture was stirred, and after confirming the dissolution thereof, a suitable amount of polyethylene glycol 400 was added to make the whole amount 15 mL. […]
After 2 days from the VEGF administration, 0.1 mL/kg of a 10% fluorescein solution was intravenously administered to rabbits. After 2 hours from administration of the fluorescein, the fluorescein concentration in the vitreous body was measured by fluorophotometry, and this was used as an index of the retinal vascular permeability.
Thereafter, according to Formula 1, an inhibition ratio (%) of the administered medicine to the retinal vascular permeability promotion caused by VEGF was calculated. […]

| SMILES | storage stability [1] | deposition of minerals in the stomach [2] | Inhibition ratio (%) (retinal vascular permeability) [3] |
| --- | --- | --- | --- |
| O=C(CO)Nc1cc(CSc2ncccc2C(=O)Nc2ccc(OC(F)(F)F)cc2)ccn1.O=S(=O)(O)c1ccccc1 [2-[[[2-[(hydroxyacetyl)amino]-4-pyridinyl]methyl]thio]-N-[4-(trifluoromethoxy)phenyl]-3-pyridinecaboxamide] | excellent | no deposition of minerals is recognized |  |
| O=C(CO)Nc1cc(CSc2ncccc2C(=O)Nc2ccc(OC(F)(F)F)cc2)ccn1 [Compound A, 2-[[[2-[(hydroxyacetyl)amino]-4-pyridinyl]methyl]thio]-N-[4-(trifluoromethoxy)phenyl]-3-pyridinecaboxamide] |  |  | 95.3 |
